System: herpes simplex I
Experiment: Topical treatment of herpes simplex I / cold sores with a neomycin B composition
Format: in vivo
Details: between 3.5 and 5 mg/g neomycin B combined with pramoxine hydrochloride in petroleum jelly
Text: Example 2: This embodiment of the invention is a compound similar to that disclosed in Example 1, except that it is specifically targeted to the treatment of herpes simplex I and the prevention of physiological manifestations of herpes simplex I (e.g., cold sores). […] However, for longer-term use or storage, preservatives like methylparaben are utilized to avoid contamination, and the ingredients preferably comprise an emulsion or suspension to distribute evenly the physiologically active ingredients.

NC[C@@H]1O[C@H](O[C@H]2[C@@H](O)[C@H](O[C@@H]3[C@@H](O)[C@H](N)C[C@H](N)[C@H]3O[C@H]3O[C@H](CN)[C@@H](O)[C@H](O)[C@H]3N)O[C@@H]2CO)[C@H](N)[C@@H](O)[C@@H]1O [neomycin B]
outcome of the experiment (treatment of herpes simplex I and prevention of its manifestations, e.g. cold sores): ultimately effective
